Drawing on ChEMBL document CHEMBL1201862, “PubChem BioAssay data set” (2004), this text covers IC50, EC50 and CC50 for eight compounds.

Assay [1] deals with G-protein coupled receptor 55 (Homo sapiens, UniProt Q9Y2T6). Briefly: SAR Analysis of Selective Antagonists of GPR55 using an Image-Based Assay - Set 4. [Related pubchem assays (depositor defined):AID2013, AID2026]. Format: functional.
Assay [2] concerns the target T1, G-protein coupled receptor 35 (Homo sapiens, UniProt Q9HC97). Briefly: SAR analysis of Antagonists of the GPR35 Receptor using an Image-Based Assay - Set 6. [Related pubchem assays (depositor defined):AID2013, AID2026]. Type of assay: functional.
Assay [3] concerns the target T1, G-protein coupled receptor 35. Briefly: SAR analysis of Agonists of the GPR35 Receptor using an Image-Based Assay - Set 4. [Related pubchem assays (depositor defined):AID2013, AID2026]. Type of assay: functional.
In assay [4] the target is T2, Cannabinoid receptor 2 (Homo sapiens, UniProt P34972). Briefly: SAR analysis of agonists of the Cannabinoid Receptor 2 using an Image-Based Assay - Set 3. [Related pubchem assays (depositor defined):AID2013, AID2026]. Type of assay: functional.
Assay [5] has as its target T3, Cannabinoid receptor 1 (Homo sapiens, UniProt P21554). Briefly: SAR analysis of agonists of the Cannabinoid Receptor 1 using an Image-Based Assay - Set 4. [Related pubchem assays (depositor defined):AID2013, AID2026]. Type of assay: functional.
Assay [6] deals with T3, Cannabinoid receptor 1. Briefly: SAR analysis of antagonists of the Cannabinoid Receptor 1 using an Image-Based Assay - Set 4. [Related pubchem assays (depositor defined):AID2013, AID2026]. Format: functional.
In assay [7] the target is T2, Cannabinoid receptor 2. Briefly: SAR analysis of antagonists of the Cannabinoid Receptor 2 using an Image-Based Assay - Set 3. [Related pubchem assays (depositor defined):AID2013, AID2026]. Type of assay: functional.
Assay [8] deals with T4, Zinc finger protein mex-5 (Caenorhabditis elegans, UniProt Q9XUB2).
T4 sequence (Q9XUB2 whole entry): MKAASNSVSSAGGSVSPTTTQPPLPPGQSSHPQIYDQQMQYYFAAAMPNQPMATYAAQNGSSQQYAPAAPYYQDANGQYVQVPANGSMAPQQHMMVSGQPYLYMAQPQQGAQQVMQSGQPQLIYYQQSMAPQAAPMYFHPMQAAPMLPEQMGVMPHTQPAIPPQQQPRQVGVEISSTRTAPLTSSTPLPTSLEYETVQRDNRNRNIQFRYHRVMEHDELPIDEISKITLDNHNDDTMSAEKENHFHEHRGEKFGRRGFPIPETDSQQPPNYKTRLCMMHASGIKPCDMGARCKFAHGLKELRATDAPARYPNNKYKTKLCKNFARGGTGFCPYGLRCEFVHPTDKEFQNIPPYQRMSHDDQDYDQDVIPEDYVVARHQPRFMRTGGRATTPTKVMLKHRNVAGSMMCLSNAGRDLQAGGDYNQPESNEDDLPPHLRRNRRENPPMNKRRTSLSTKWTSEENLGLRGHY
The assay can be described thus: MEX-5/TCR-2 RNA interaction inhibitors, dose response, biochemical, C. elegans, fluorescence polarization (AID 1960).

A further assay concerns the target Mucolipin-3 (Homo sapiens, UniProt Q8TDD5). Briefly: Fluorescence counterscreen assay for […] agonists: dose response cell-based high-throughput screening assay to identify agonists of the transient receptor potential channel ML3 (TRPML3). [Related pubchem assays: 1424, 1448 ]. Type of assay: functional. (The purpose of a counterscreen is to sort out artefacts and off-target activity.)

In assay [9] the target is Beta-lactamase (Pseudomonas aeruginosa, UniProt Q79MP6).
In assay [10] the target is T5, RNA-binding protein pos-1 (Caenorhabditis elegans, UniProt G5EF15).
T5 sequence (G5EF15 whole entry): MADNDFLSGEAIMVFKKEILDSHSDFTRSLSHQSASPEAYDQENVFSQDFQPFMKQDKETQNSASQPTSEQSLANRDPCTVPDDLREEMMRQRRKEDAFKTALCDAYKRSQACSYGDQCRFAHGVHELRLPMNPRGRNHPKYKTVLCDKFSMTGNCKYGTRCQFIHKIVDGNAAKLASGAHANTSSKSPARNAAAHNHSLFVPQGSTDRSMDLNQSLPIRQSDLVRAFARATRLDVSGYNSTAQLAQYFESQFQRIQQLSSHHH
Briefly: inhibitors of POS-1/mex-3 RNA binding, dose response, biochemical, fluorescence polarization (AID 1964).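 Also: purified POS-1 fused to maltose binding protein made in E. coli; potency of compounds blocking POS-1 binding to fluorescent RNA.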 Background: In fluorescence polarisation assays a small probe gives low polarisation when free and higher when bound to something large.

The next assay addresses Ion channel NompC (Danio rerio, UniProt Q7T1G6). The assay can be described thus: Dose response cell-based high-throughput screening assay for agonists of the transient receptor potential channel N1 (TRPN1). [Related pubchem assays (depositor defined):AID1424, AID1448]. Format: functional.
The target of assay [11] is Beta-lactamase (Salmonella choleraesuis (strain SC-B67), UniProt Q5J463).
Assay [12] can be described thus: microbe, parasite or virus in culture. Format: functional. The note with it: Mycobacterium tuberculosis.
Another assay can be described thus: cells. Format: functional.
Assay [13] can be described thus: Vero E6 cell cytotoxicity, dose response, cytotoxicity control for non-replicating M. tuberculosis project, secondary assay (AID 492998). Type of assay: functional, VeroE6. The note with it: Vero C1008.
Assay [14] deals with Peroxisome proliferator-activated receptor gamma (Homo sapiens, UniProt P37231). Briefly: PPARg partial agonists, dose response, cell-based, luminescence, assay provider (AID 504447). Type of assay: functional.
The target in assay [15] is Sphingosine 1-phosphate receptor 4 (Homo sapiens, UniProt O95977). Briefly: Late-stage fluorescence dose response cell-based assay to identify agonists of the Sphingosine 1-Phosphate Receptor 4 (S1P4): purchased compounds EC50. [Related pubchem assays (depositor defined):AID1509, AID1523, AID1563, AID1686, AID1701, AID1801]. Format: functional.
Assay [16] has as its target T6, Mannose-6-phosphate isomerase (Homo sapiens, UniProt P34949).
T6 sequence (P34949 whole entry): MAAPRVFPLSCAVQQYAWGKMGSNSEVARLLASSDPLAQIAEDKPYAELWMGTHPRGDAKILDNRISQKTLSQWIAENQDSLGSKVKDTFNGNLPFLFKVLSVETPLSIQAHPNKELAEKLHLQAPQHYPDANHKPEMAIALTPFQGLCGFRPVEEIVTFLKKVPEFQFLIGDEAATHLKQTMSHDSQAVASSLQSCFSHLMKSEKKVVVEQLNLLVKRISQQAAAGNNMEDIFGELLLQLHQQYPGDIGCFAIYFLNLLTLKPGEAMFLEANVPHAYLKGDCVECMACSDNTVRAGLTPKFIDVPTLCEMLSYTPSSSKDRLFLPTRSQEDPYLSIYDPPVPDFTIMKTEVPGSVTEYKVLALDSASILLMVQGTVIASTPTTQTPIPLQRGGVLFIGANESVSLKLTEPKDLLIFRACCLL
The assay can be described thus: inhibitors of human PMI, primary screen, biochemical, fluorescence intensity, coupled assay (AID 1209).

A further assay addresses T7, Phosphomannomutase 2 (Homo sapiens, UniProt O15305).
T7 sequence (O15305 whole entry): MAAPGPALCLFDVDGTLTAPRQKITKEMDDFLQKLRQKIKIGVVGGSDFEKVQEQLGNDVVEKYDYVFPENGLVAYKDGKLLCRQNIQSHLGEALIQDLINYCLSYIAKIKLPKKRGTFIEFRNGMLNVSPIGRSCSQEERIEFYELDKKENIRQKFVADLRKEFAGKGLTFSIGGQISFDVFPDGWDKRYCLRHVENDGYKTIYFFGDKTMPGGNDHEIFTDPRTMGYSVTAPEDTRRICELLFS
Briefly: Counter screen SAR assay for PMM2 inhibitors via a fluorescence intensity assay. [Related pubchem assays (depositor defined):AID1545, AID1574].

The target in assay [17] is Dual specificity protein phosphatase 3 (Homo sapiens, UniProt P51452). The assay can be described thus: SAR VHR1 Fluorescent Assay for In Vitro dose response studies Set 2. [Related pubchem assays (depositor defined):AID1654, AID1661, AID1878]. Format: functional.
In assay [18] the target is T6, Mannose-6-phosphate isomerase. The assay can be described thus: PMI enzyme inhibitors, confirmation, biochemical, fluorescence intensity (AID 1535).
Assay [19] concerns the target T8, Tyrosine-protein phosphatase non-receptor type 7 (Homo sapiens, UniProt P35236).
T8 sequence (P35236 whole entry): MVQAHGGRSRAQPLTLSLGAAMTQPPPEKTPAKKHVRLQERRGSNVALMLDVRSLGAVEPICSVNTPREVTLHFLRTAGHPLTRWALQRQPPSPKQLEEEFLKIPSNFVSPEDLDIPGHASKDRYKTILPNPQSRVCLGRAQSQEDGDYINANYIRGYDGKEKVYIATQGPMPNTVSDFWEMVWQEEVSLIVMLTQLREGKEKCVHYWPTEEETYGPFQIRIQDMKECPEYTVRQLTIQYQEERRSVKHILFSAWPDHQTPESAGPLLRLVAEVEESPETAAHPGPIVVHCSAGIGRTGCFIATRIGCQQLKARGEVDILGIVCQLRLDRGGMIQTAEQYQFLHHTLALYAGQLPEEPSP
The assay can be described thus: SAR analysis of chemical inhibitors of HePTP using a Fluorescent assay - Set 2. [Related pubchem assays (depositor defined):AID1059, AID1077, AID1661, AID2085, AID521]. Format: functional.

Assay [20] has as its target T9, Runt-related transcription factor 1/Core-binding factor subunit beta (Homo sapiens, UniProt Q01196+Q13951). The assay can be described thus: Confirmation of compounds inhibiting the binding between the RUNX1 Runt domain and CBFb-SMMHC via a fluorescence resonance energy transfer (FRET) assay. [Related pubchem assays (depositor defined):AID1434, AID1438, AID1496, AID1550, AID1645]. Type of assay: protein assay.

Assay [21] deals with T9, Runt-related transcription factor 1/Core-binding factor subunit beta. Briefly: inhibitors of RUNX1 Runt–CBFb-SMMHC binding, primary screen, biochemical, FRET, Cerulean-Runt, Venus-CBFb-SMMHC, uHTS (AID 1434).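 Also: partner is the CBFb-SMMHC leukemia fusion protein rather than wild-type CBFb.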 Format: protein assay.
For assay [22] the target is unchanged. The assay can be described thus: inhibitors of RUNX1 Runt–CBFb-SMMHC binding, biochemical, TR-FRET (AID 1438). Format: protein assay. (In TR-FRET formats the signal depends on donor and acceptor labels being close together.)
Another assay addresses Mu-type opioid receptor (Homo sapiens, UniProt P35372). The assay can be described thus: SAR Analysis of Antagonists of the MOR Receptor using an Image-Based Assay - Set 3. [Related pubchem assays (depositor defined):AID1777, AID1785, AID1786, AID1966, AID2133, AID2136, AID2284, AID2285, AID2420]. Type of assay: functional.
The target of assay [23] is T10, Kappa-type opioid receptor (Homo sapiens, UniProt P41145). The assay can be described thus: SAR analysis of Antagonists of the Kappa Opioid Receptor (KOR) using an Image-Based Assay - Set 3. [Related pubchem assays (depositor defined):AID1777, AID1785]. Format: functional.
The target in assay [24] is Delta-type opioid receptor (Homo sapiens, UniProt P41143). Briefly: SAR Analysis of Antagonists of the DOR Receptor using an Image-Based Assay - Set 3. [Related pubchem assays (depositor defined):AID1777, AID1785]. Type of assay: functional.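 Also: U2OS cells expressing DOR1 and beta-arrestin GFP stimulated with 100 nM SNC80; imaging of GFP-tagged beta-arrestin moving into spots after receptor activation.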
The target in assay [25] is T10, Kappa-type opioid receptor. Briefly: SAR analysis of small molecule antagonists of the kappa opioid receptor via a luminescent beta-arrestin assay - Set 3. [Related pubchem assays (depositor defined):AID1777, AID1778, AID1785, AID1786, AID1966, AID2133, AID2136, AID2285, AID2495]. Format: functional.

Calls of active or inactive are those of the source.

T9 sequence (Q01196 whole entry, the tested form may be a part): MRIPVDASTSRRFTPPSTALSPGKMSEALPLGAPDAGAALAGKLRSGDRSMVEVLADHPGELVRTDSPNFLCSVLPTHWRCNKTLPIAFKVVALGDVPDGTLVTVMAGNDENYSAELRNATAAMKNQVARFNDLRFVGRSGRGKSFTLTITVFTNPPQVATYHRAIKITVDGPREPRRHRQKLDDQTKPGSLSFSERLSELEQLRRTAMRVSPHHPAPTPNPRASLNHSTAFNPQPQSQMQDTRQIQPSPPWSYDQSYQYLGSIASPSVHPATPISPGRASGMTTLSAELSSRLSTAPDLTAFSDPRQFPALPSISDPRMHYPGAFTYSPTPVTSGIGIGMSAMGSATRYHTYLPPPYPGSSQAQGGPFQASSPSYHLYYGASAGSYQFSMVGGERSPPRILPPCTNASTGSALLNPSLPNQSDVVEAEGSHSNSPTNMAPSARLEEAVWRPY
T9 sequence (Q13951 whole entry, the tested form may be a part): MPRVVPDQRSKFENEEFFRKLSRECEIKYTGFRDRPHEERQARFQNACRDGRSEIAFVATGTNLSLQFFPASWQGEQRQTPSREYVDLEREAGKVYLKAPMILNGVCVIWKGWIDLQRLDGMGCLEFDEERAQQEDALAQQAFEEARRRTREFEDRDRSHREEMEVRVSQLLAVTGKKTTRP
T2 sequence (P34972 whole entry): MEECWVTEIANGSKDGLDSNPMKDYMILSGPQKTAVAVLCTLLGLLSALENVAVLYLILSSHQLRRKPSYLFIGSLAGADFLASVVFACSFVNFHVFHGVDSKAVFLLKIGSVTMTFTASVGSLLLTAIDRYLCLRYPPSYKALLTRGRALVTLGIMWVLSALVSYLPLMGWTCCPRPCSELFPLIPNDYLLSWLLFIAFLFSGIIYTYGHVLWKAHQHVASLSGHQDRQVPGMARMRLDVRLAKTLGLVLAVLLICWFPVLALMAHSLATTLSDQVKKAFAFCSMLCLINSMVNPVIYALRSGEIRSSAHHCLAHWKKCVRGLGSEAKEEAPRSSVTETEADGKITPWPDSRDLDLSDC
T10 sequence (P41145 whole entry): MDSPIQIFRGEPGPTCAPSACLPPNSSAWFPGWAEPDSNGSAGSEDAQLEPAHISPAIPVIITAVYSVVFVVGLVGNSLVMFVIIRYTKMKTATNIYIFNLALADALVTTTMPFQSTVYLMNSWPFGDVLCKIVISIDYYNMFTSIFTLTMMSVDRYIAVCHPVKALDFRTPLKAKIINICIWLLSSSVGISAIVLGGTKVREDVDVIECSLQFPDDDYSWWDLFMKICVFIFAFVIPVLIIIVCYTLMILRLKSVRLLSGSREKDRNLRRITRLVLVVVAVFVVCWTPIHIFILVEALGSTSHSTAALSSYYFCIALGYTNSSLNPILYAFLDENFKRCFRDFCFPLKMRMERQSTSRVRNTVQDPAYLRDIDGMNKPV
T3 sequence (P21554 whole entry): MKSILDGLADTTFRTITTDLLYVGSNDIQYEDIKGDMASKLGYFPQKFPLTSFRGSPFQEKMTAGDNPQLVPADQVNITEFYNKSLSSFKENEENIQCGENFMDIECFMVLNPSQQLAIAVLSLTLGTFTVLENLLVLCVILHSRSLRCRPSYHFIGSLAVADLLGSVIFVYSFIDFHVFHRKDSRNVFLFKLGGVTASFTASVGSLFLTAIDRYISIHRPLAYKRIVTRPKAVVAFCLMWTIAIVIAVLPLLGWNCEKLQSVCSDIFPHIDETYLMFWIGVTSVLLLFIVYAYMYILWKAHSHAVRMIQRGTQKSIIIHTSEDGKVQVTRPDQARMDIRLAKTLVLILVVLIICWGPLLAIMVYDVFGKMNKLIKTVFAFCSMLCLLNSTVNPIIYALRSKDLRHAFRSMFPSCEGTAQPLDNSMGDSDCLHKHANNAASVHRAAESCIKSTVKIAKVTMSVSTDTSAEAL
T1 sequence (Q9HC97 whole entry): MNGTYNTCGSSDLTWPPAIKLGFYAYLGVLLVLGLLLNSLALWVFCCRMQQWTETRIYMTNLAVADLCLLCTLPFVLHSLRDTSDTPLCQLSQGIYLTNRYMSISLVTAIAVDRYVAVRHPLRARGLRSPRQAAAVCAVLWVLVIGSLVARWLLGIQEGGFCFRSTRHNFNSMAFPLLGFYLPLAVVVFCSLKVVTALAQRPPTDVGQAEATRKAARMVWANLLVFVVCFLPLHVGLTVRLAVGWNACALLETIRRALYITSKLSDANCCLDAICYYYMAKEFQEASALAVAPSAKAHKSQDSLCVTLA
Chain of Beta-lactamase (Salmonella choleraesuis (strain SC-B67), UniProt Q5J463) (Q5J463 whole entry): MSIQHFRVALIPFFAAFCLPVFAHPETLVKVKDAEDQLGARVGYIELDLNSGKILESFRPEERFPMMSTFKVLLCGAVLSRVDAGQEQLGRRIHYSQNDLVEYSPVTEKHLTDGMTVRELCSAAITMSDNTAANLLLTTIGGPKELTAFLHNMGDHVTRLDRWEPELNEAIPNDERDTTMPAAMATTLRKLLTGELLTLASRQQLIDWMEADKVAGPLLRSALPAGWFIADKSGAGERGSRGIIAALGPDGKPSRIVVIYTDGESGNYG
Chain of Mucolipin-3 (Q8TDD5 whole entry): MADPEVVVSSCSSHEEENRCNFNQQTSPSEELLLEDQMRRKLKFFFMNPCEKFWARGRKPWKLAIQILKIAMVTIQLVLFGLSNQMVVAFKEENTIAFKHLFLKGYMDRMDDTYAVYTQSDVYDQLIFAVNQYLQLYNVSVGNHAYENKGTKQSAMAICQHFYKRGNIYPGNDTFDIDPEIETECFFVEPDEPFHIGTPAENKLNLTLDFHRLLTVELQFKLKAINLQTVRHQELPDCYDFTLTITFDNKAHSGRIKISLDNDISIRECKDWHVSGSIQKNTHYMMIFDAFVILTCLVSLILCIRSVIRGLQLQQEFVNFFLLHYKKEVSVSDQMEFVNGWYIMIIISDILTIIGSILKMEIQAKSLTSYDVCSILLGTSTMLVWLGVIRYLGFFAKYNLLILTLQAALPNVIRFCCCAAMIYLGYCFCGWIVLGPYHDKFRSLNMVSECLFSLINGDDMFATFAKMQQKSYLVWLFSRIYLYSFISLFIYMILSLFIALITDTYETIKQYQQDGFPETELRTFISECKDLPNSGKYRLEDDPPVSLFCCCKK
Chain of Ion channel NompC (Q7T1G6 whole entry): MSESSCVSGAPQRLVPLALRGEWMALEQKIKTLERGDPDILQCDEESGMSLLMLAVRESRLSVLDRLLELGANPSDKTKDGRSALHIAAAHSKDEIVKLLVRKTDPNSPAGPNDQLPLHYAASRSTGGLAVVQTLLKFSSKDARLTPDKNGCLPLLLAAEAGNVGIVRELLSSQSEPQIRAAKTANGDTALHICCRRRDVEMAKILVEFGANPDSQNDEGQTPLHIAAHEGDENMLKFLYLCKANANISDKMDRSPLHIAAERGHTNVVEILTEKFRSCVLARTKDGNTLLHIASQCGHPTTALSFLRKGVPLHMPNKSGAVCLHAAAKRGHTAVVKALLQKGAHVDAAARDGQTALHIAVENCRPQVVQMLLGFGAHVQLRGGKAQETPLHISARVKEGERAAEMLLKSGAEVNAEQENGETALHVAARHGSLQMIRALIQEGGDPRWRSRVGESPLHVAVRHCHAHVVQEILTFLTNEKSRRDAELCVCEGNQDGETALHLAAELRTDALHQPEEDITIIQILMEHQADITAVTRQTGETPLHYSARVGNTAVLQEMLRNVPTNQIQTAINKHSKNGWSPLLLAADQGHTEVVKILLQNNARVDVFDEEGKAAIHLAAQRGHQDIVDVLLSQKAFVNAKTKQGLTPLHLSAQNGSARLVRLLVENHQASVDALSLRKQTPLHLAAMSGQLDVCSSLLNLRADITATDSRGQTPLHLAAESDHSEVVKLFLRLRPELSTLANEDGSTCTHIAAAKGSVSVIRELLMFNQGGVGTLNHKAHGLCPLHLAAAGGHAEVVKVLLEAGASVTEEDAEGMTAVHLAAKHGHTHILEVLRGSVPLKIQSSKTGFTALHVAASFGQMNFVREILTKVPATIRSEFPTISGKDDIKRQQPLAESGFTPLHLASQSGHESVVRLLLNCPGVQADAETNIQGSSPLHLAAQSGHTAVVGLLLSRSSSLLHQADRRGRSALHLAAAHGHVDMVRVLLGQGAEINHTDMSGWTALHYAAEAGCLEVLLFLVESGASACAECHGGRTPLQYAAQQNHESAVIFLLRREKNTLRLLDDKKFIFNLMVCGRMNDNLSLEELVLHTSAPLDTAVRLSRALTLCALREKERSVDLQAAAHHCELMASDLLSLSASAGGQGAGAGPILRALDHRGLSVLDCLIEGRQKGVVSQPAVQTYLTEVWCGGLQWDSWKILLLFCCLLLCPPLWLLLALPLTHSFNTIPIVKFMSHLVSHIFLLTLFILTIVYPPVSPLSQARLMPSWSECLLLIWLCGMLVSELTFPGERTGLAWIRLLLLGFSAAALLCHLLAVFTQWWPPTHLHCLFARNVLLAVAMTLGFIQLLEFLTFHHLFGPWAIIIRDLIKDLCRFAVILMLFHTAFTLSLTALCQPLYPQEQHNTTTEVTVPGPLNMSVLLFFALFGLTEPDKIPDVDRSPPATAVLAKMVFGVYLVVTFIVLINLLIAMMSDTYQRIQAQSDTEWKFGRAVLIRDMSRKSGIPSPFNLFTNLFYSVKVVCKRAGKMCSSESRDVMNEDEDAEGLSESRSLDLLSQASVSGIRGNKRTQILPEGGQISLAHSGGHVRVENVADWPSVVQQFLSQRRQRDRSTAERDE
Chain of G-protein coupled receptor 55 (Q9Y2T6 whole entry): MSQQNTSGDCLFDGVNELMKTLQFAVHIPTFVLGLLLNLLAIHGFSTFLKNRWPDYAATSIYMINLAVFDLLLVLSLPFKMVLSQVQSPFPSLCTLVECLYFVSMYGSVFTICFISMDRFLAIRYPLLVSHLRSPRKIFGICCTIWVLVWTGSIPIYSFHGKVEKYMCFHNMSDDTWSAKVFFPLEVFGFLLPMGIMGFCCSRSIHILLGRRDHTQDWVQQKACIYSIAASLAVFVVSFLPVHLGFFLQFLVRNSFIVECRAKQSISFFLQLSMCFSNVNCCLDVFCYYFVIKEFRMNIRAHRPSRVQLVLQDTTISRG

Usually IC50 stands for the midpoint of a concentration-inhibition curve. As usually defined, the EC50 is the concentration giving half of the maximal effect. Consider `O=C(Cc1ccccc1F)N1CCC(n2nc(-c3ccccc3)oc2=O)CC1`, for which the IC50 in assay [1] is > 32 µM (inactive); in [2], > 32 µM (inactive); on Cannabinoid receptor 1 [6], 17.9 µM (inactive); at Cannabinoid receptor 2 [7], > 32 µM (inactive). The EC50 (in assay [3]; on Cannabinoid receptor 2 [4]; on Cannabinoid receptor 1 [5]) was > 32 µM (inactive) throughout.

For the compound `CCCN1C(=O)c2cccc3c(N4CCCCC4)ccc(c23)C1=O`, the EC50 in assay [8] was 51 µM (inconclusive); at Mucolipin-3 it was > 9.97 µM (not active); in assay [10], 29.8 µM (active); at Ion channel NompC, > 9.97 µM (inactive). The IC50 at Beta-lactamase [9] and at Beta-lactamase [11] was > 59.6 µM (inactive) in each case.

Consider `Cc1cc(C)n2[nH]c(=O)c(N=Nc3cccc(C(F)(F)F)c3)c2n1`, for which the CC50 in assay [12] is 26.2 µM (active); in [13] it was 20 µM (active). In addition, in “cells”, the IC50 is 18.7 µM (active).

Take `O=C(CSc1nc(=O)n(CCN2CCOCC2)c2c1CCCC2)Nc1cccc([N+](=O)[O-])c1`: in assay [14], the EC50 is 0.631 µM (active).

For `CC(=O)c1ccccc1NC(=O)C(C)OC(=O)c1c(C)nn(Cc2ccccc2)c1Cl` (stereo not given), the EC50 in [15] was > 50 µM (inactive).

For `CCOc1ccc(NC(=S)Nc2cc(C)n[nH]2)cc1`, the IC50 in assay [16] was 9.41 µM (active); on Phosphomannomutase 2 it was > 100 µM (inactive); in assay [17] it was > 100 µM (inactive); in assay [18], > 50 µM (inactive); in [19], > 100 µM (inactive).

Take `Cc1nc2ccc(S(=O)(=O)Nc3ccc(-c4nc5cccnc5s4)cc3)cc2s1`: the IC50 was 0.713 µM (active) in assay [20], 1.6 µM (active) in assay [21] and > 100 µM (inactive) in assay [22].

Take `Cc1cccc(S(=O)(=O)NCc2ccc(C(=O)NCCN3Cc4ccccc4C3)cc2)c1`: the IC50 on Mu-type opioid receptor was > 32 µM (inactive); in assay [23], > 32 µM (inactive); in assay [24], > 32 µM (inactive); in assay [25] it was > 20 µM (inactive).
